Patent US20090130261A1, “Vit-A-Cup” (priority 2007, published 2009)
Read-outs that look alike come from different tables or passages of the source.

Columns and labels:
[1] = compatibility and stability of additives dissolved or suspended in water-based polyacrylic acid carbomer matrixes; conditions: for compatibility in carrier matrix: short term
From the text: (§1) The differing chemical characteristics of the various additives require each ingredient or blend of ingredients to be dissolved or suspended in a customized matrix in order to ensure desired delivery of the additive in question. […] A number of characteristics were studied for each desired additive compound or complex, such as the degree of chemical affinity to water, solubility rates in various solvents and at various levels of pH, and degradation rates upon exposure to various environmental factors including oxygen levels in ambient air and temperature, as well as individual tolerance to extreme shifts in pH levels.

[2] = solubility characteristics of additives
From the text: as §1
This is accomplished, for example, in a suspension of 3% Xanthan gum and 0.5% Noveon Carbopol Carbomer in distilled water with 20% Ethanol (to aid in speeding the drying time). This solution is then sprayed on to the interior of the cup and allowed to dry. […] Again, this would be delivered in a flavor-masked suspension of 3% Xanthan gum and 0.5% Noveon Carbopol Carbomer.

[3] = dissolved or suspended in water-based polyacrylic acid carbomer matrixes
[4] = require suspension prior to administration to the cup

For `N[C@@H](Cc1ccccc1)C(=O)O` [Phenylalanine], the “stability in carrier matrix” value [1] was “stable” and the “compatibility in carrier matrix” value [1, 3] was “compatible”.

In the case of `NCCCC[C@H](N)C(=O)O` [Lysine], the “stability in carrier matrix” value [1] is reported as “stable” and the “compatibility in carrier matrix” value [1, 3] is reported as “compatible”.

In the case of `Cc1ncc(CO)c(CO)c1O` [Vitamin B6, Pyridoxine], the “stability in carrier matrix” value [1] is reported as “stable” and the “compatibility in carrier matrix” value [1, 3] is reported as “compatible”.

In the case of `NCC(=O)O` [Glycine], the “stability in carrier matrix” value [1] is reported as “stable” and the “compatibility in carrier matrix” value [1, 3] is reported as “compatible”.

For `Nc1nc2ncc(CNc3ccc(C(=O)N[C@@H](CCC(=O)O)C(=O)O)cc3)nc2c(=O)[nH]1` [Folic Acid], the solubility [2] was “Insoluble”.

For `N[C@@H](Cc1c[nH]c2ccccc12)C(=O)O` [Tryptophan], the “stability in carrier matrix” value [1] was “stable” and the “compatibility in carrier matrix” value [1, 3] was “compatible”.

With Vitamin D the solubility [2, 4] was “Insoluble”.

For `[Cr]` [Chromium], the solubility [2, 4] was “Insoluble”.

In the case of `NC(=O)C[C@H](N)C(=O)O` [Asparagine], the “stability in carrier matrix” value [1] is reported as “stable” and the “compatibility in carrier matrix” value [1, 3] is reported as “compatible”.

For `[Se]` [Selenium], the solubility [2, 4] was “Insoluble”.

With Cyanocobalamin [Vitamin B12] the “stability in carrier matrix” value [1] was “stable” and the “compatibility in carrier matrix” value [1, 3] was “compatible”.

With `CC(C)C[C@H](N)C(=O)O` [Leucine] the “stability in carrier matrix” value [1] was “stable” and the “compatibility in carrier matrix” value [1, 3] was “compatible”.

In the case of `C[C@@H](O)[C@H](N)C(=O)O` [Threonine], the “stability in carrier matrix” value [1] is reported as “stable” and the “compatibility in carrier matrix” value [1, 3] is reported as “compatible”.

For `Nc1ccc(C(=O)O)cc1` [PABA, Para-Aminobenzoic Acid], the solubility [2, 4] was “Insoluble”.

For `N[C@@H](Cc1c[nH]cn1)C(=O)O` [Histidine], the “stability in carrier matrix” value [1] was “stable” and the “compatibility in carrier matrix” value [1, 3] was “compatible”.

For `[Zn]` [Zinc], the solubility [2, 4] was “Insoluble”.

In the case of `Cc1cc2nc3c(=O)[nH]c(=O)nc-3n(C[C@H](O)[C@H](O)[C@H](O)CO)c2cc1C` [Vitamin B2, Riboflavin], the “stability in carrier matrix” value [1] is reported as “stable” and the “compatibility in carrier matrix” value [1, 3] is reported as “compatible”.

In the case of `COC1=C(OC)C(=O)C(C/C=C(\C)CC/C=C(\C)CC/C=C(\C)CC/C=C(\C)CC/C=C(\C)CC/C=C(\C)CC/C=C(\C)CC/C=C(\C)CC/C=C(\C)CCC=C(C)C)=C(C)C1=O` [Coenzyme Q10], the solubility [2, 4] is reported as “Insoluble”.

With `N[C@@H](CS)C(=O)O` [Cysteine] the “stability in carrier matrix” value [1] was “stable” and the “compatibility in carrier matrix” value [1, 3] was “compatible”.

For `N[C@@H](CCC(=O)O)C(=O)O` [Glutamic acid], the “stability in carrier matrix” value ([1]; dissolved or suspended in water-based polyacrylic acid carbomer matrixes, longer term) was “stable” and the “compatibility in carrier matrix” value [1, 3] was “compatible”.

With Vitamin K the solubility [2] was “Insoluble”.

For `N[C@@H](CC(=O)O)C(=O)O` [Aspartic acid], the “stability in carrier matrix” value [1] was “stable” and the “compatibility in carrier matrix” value [1, 3] was “compatible”.

In the case of Iodine, the solubility [2, 4] is reported as “Insoluble”.

With `CSCC[C@H](N)C(=O)O` [Methionine] the “stability in carrier matrix” value [1] was “stable” and the “compatibility in carrier matrix” value [1, 3] was “compatible”.

With `[Cu]` [Copper] the solubility [2] was “Insoluble”.

In the case of `[Mg+2]` [Magnesium], the solubility [2, 4] is reported as “Insoluble”.

With `CC(C)[C@H](N)C(=O)O` [Valine] the “stability in carrier matrix” value [1] was “stable” and the “compatibility in carrier matrix” value [1, 3] was “compatible”.

In the case of `C[C@H](N)C(=O)O` [Alanine], the “stability in carrier matrix” value [1] is reported as “stable” and the “compatibility in carrier matrix” value [1, 3] is reported as “compatible”.

For `N=C(N)NCCC[C@H](N)C(=O)O` [Arginine], the “stability in carrier matrix” value [1] was “stable” and the “compatibility in carrier matrix” value [1, 3] was “compatible”.

With `N[C@@H](Cc1ccc(O)cc1)C(=O)O` [Tyrosine] the “stability in carrier matrix” value [1] was “stable” and the “compatibility in carrier matrix” value [1, 3] was “compatible”.

In the case of `Cc1ncc(C[n+]2csc(CCO)c2C)c(N)n1` [Vitamin B1, Thiamine], the “stability in carrier matrix” value [1] is reported as “stable” and the “compatibility in carrier matrix” value [1, 3] is reported as “compatible”.

In the case of `O=C(O)CCCC[C@@H]1SC[C@@H]2NC(=O)N[C@@H]21` [Biotin], the “stability in carrier matrix” value [1] is reported as “stable” and the “compatibility in carrier matrix” value [1, 3] is reported as “compatible”.

With `[K+]` [Potassium] the solubility [2] was “Insoluble”.

With `NC(=O)CC[C@H](N)C(=O)O` [Glutamine] the “stability in carrier matrix” value [1] was “stable” and the “compatibility in carrier matrix” value [1, 3] was “compatible”.

In the case of `[Mn+2]` [Manganese], the solubility [2, 4] is reported as “Insoluble”.

In the case of `CC[C@H](C)[C@H](N)C(=O)O` [Isoleucine], the “stability in carrier matrix” value [1] is reported as “stable” and the “compatibility in carrier matrix” value [1, 3] is reported as “compatible”.

In the case of `N[C@@H](CO)C(=O)O` [Serine], the “stability in carrier matrix” value [1] is reported as “stable” and the “compatibility in carrier matrix” value [1, 3] is reported as “compatible”.

For `[Mo]` [Molybdenum], the solubility [2] was “Insoluble”.

In the case of `O=C(O)[C@@H]1CCCN1` [Proline], the “stability in carrier matrix” value [1] is reported as “stable” and the “compatibility in carrier matrix” value [1, 3] is reported as “compatible”.

With `CC1=C(/C=C/C(C)=C/C=C/C(C)=C/C=C/C=C(C)/C=C/C=C(C)/C=C/C2=C(C)CCCC2(C)C)C(C)(C)CCC1` [Vitamin A, Beta-Carotene] the “stability in carrier matrix” value [1] was “stable” and the “compatibility in carrier matrix” value [1, 3] was “compatible”.

For `C[N+](C)(C)CCO` [Choline], the “stability in carrier matrix” value [1] was “stable”.

For `CC(C)(CO)[C@@H](O)C(=O)NCCC(=O)O` [Vitamin B5, Pantothenic Acid], the “stability in carrier matrix” value [1] was “stable” and the “compatibility in carrier matrix” value [1, 3] was “compatible”.

For Vitamin E, the solubility [2] was “Insoluble”.
